# Test results from US20240180893A1, “METHODS OF TREATMENT OF BREAST CANCER” (AstraZeneca AB, priority 2022, published 2024).
# Assays:
# [1] = system: ESR1m ctDNA; assay: SERENA-2 phase 2 study: changes in ESR1m ctDNA summed Variant Allele Frequency (sVAF %); type: in vivo, human (post-menopausal women)
# Excerpt: FIG. 6: Changes in ESR1m ctDNA summed Variant Allele Frequency (sVAF %) by treatment group and visit comparisons (pre-treatment is a comparison of samples collected at screening and cycle 1 day 1, C×D1 are comparisons of samples collected at cycle 1 day 1 and cycle×day 1). Variants defined as ESR1m are E380Q, V422del, S463P, L536H/P/R, Y537C/D/N/S. Points represent individual patients, box represents upper quartile, median and lower quartile, whiskers represent 1.5 interquartile range. Treatment with camizestrant 75 mg and 150 mg caused a 100% or near 100% reduction in the level of ESR1m at all timepoints.
# Blood and plasma samples for circulating tumour (ctDNA) and cancer antigen 15-3 (CA15-3) analyses will be collected at screening, on Day 1 and Day 15 of Cycle 1, on Day 1 of Cycles 2 to 5, 8-weekly (Day 1 of every 2nd cycle) from Week 25 (Cycle 7) to coincide with tumour imaging, at the EOT and/or disease progression.
# The following samples for biomarker research are optional and will collected from patients in the study where possible as specified in the SoA (Table 6). • Paired tumour biopsy samples; pre- and on-treatment. Samples will be collected for patients with tumours amenable to biopsies in up to 12 patients per treatment group. • Additional tumour biopsy samples may be collected at time of progression. Blood samples for circulating tumour DNA. […]
# [2] = system: HR+, HER2− metastatic or loco-regionally recurrent breast cancer; assay: SERENA-2 phase 2 study: progression free survival (PFS), RECIST 1.1, assessed by Investigator; type: in vivo, human (post-menopausal women)
# Excerpt: In embodiments of the present speciation the method of treatments, ngSERD for use in treatment or for use in the manufacture of a medicament, kit or pharmaceutical composition for use delivers an improvement in the time to disease progression or progression free survival (PFS) relative to that obtained from use of fulvestrant (the first generation SERD). In such embodiment the PFS improvement is relative to that observed with standard of care, i.e. fulvestrant administered at the approved dose of 500 mg once monthly by injection. Clinical activity as assessed by PFS can be determined by the standard assessment of tumour response as per RECIST 1.1 (Eisenhauser et al., Eur J Cancer 2009 January; 45(2):228-47). The RECIST criteria can be evaluated by the treating physician/investigator or by Blinded Independent Central Review (BICR).
# In the SERENA-2 clinical trial, further details of which are provided below, the efficacy of camizestrant administered once daily in tablet form at doses of 75 mg and 150 mg as a treatment for patients with HR+, HER2− metastatic or loco-regionally recurrent breast cancer that the breast cancer has recurred or progressed following at least one prior line of endocrine therapy was assessed. The control arm patient in this study were treated with standard of care fulvestrant, the first generation SERD, administered as once monthly 500 mg injection. The study was powered to differentiate between the camizestrant and standard of care, fulvestrant (F), treatment arms, but was not powered to differentiate between the 75 mg and 150 mg camizestrant dose cohorts.
# A randomised, open-label, parallel-group, multicentre phase 2 study comparing the efficacy and safety of oral AZD9833 versus fulvestrant in women with advanced er-positive her2-negative breast cancer was carried out according to the following protocol and schedule of activities. The study evaluated the efficacy and safety of AZD9833 (75, 150 and 300 mg, oral [PO]) administered once daily as a monotherapy in comparison with fulvestrant administered according to its label (i. e., slow IM injection into the buttocks [1 to 2 minutes per injection] as two 5-mL injections, 1 in each buttock, on Day 1, Day 15, Day 29 and 4-weekly thereafter).
# This is a randomised, open-label, parallel-group, multicentre Phase 2 study to compare the efficacy and safety of daily PO AZD9833 versus IM fulvestrant in women with advanced ER positive HER2 negative breast cancer. Post-menopausal women with histologically or cytologically confirmed metastatic or loco-regionally recurrent disease before randomisation and fulfilling all of the inclusion criteria and none of the exclusion criteria will be included. Randomisation will be stratified according to the prior use of CDK4/6 inhibitors and the presence of liver and/or lung metastases.
# After the screening visit and confirmation of eligibility, patients will be randomly assigned in a 1:1:1:1 ratio to receive 1 of the following 4 treatments, consisting in 4-week treatment cycles until disease progression (assessed by the Investigator as defined by Response Evaluation Criteria in Solid Tumours [RECIST] version 1.1): • AZD9833 (75 mg, PO, once daily) • AZD9833 (150 mg, PO, once daily) • AZD9833 (300 mg, PO, once daily) • Fulvestrant (500 mg IM, Day 1, Day 15, Day 29, and 4-weekly thereafter)
# Efficacy assessments. Assessment of tumour response. The assessment of tumour response per RECIST version 1.1 will be used to determine the clinical activity (assessed by PFS) and anti-tumour activity (assessed by ORR, clinical benefit rate [CBR]) of AZD9833 and fulvestrant.
# Investigator's assessment of tumour response per RECIST version 1.1. Tumour response will be assessed by the Investigators per RECIST version 1.1 (Eisenhauer et al. 2009). From the Investigator's review of the imaging scans, the evaluation of TLs, NTLs and new lesions will be used to determine the overall visit response for each patient. […]
# [3] = camizestrant 75 mg once daily, all patients, by Investigator
# [4] = camizestrant 75 mg, subgroup with metastases to the liver and/or lungs
# [5] = camizestrant 75 mg, subgroup with prior CDK4/6 inhibitor therapy
# [6] = camizestrant 150 mg once daily, all patients, by Investigator
# [7] = camizestrant 150 mg, subgroup with metastases to the liver and/or lungs
# [8] = camizestrant 150 mg, subgroup with prior CDK4/6 inhibitor therapy
# [9] = fulvestrant 500 mg once monthly injection, all patients, by Investigator
# [10] = fulvestrant 500 mg, ESR1m subgroup
# [11] = fulvestrant 500 mg, subgroup with metastases to the liver and/or lungs
# [12] = fulvestrant 500 mg, subgroup with prior CDK4/6 inhibitor therapy
smiles,measurement,setting,value
"C[C@@H]1Cc2c(ccc3[nH]ncc23)[C@@H](c2ccc(NC3CN(CCCF)C3)cn2)N1CC(F)(F)F [camizestrant, N-(1-(3-fluoropropyl)azetidin-3-yl)-6-((6S,8R)-8-methyl-7-(2,2,2-trifluoroethyl)-6,7,8,9-tetrahydro-3H-pyrazolo[4,3-f]isoquinolin-6-yl)pyridin-3-amine]",Reduction in the level of ESR1m (ctDNA sVAF),"[1]; camizestrant 75 mg and 150 mg, all timepoints vs cycle 1 day 1",~100%
same,PFS events [no.],"[2]; AZD9833 75 mg (n = 22), subgroup with mutation to the estrogen receptor (ESR1m)",15
same,Hazard ratio vs fulvestrant,"[2]; AZD9833 75 mg, ESR1m subgroup",0.33
same,Median PFS,"[2]; AZD9833 75 mg, ESR1m subgroup",6.3 months
same,PFS events (%),"[2]; AZD9833 75 mg, ESR1m subgroup",(68.2) %
same,PFS events [no.],"[2]; AZD9833 150 mg (n = 26), subgroup with mutation to the estrogen receptor (ESR1m)",22
same,Hazard ratio vs fulvestrant,"[2]; AZD9833 150 mg, ESR1m subgroup",0.55
same,Median PFS,"[2]; AZD9833 150 mg, ESR1m subgroup",9.2 months
same,PFS events (%),"[2]; AZD9833 150 mg, ESR1m subgroup",(84.6) %
same,Improvement of PFS over fulvestrant,"[2]; both camizestrant arms (75 mg and 150 mg), all comer population, by either Investigator or BICR",at least 3.5 months
same,PFS events [n],"[2]; camizestrant 75 mg (n = 38), subgroup with prior CDK4/6 inhibitor therapy",29
same,PFS events [no.],"[2]; camizestrant 75 mg (n = 43), subgroup with metastases to the liver and/or lungs",31
same,Hazard ratio for disease progression relative to fulvestrant,[2]; [3],0.58
same,Proportion of patients without progression at 12 m,[2]; [3],34.3%
same,Median PFS,"[2]; camizestrant 75 mg tablet once daily, all patients, by Investigator",7.2 months
same,Hazard ratio vs fulvestrant,[2]; [4],0.43
same,Median PFS,[2]; [4],7.2 months
same,PFS events (%),[2]; [4],(72.1) %
same,Hazard ratio vs fulvestrant,[2]; [5],0.49
same,Median PFS,[2]; [5],5.5 months
same,PFS events (%),[2]; [5],(76.3) %
same,PFS events [n],"[2]; camizestrant 150 mg (n = 37), subgroup with prior CDK4/6 inhibitor therapy",29
same,PFS events [no.],"[2]; camizestrant 150 mg (n = 43), subgroup with metastases to the liver and/or lungs",32
same,Hazard ratio for disease progression relative to fulvestrant,[2]; [6],0.67
same,Proportion of patients without progression at 12 m,[2]; [6],44.5%
same,Median PFS,"[2]; camizestrant 150 mg tablet once daily, all patients, by Investigator",7.7 months
same,Hazard ratio vs fulvestrant,[2]; [7],0.55
same,Median PFS,[2]; [7],5.6 months
same,PFS events (%),[2]; [7],(74.4) %
same,Hazard ratio vs fulvestrant,[2]; [8],0.68
same,Median PFS,[2]; [8],3.8 months
same,PFS events (%),[2]; [8],(78.4) %
"C[C@]12CC[C@@H]3c4ccc(O)cc4C[C@@H](CCCCCCCCC[S+]([O-])CCCC(F)(F)C(F)(F)F)[C@H]3[C@@H]1CC[C@@H]2O (some centres unmarked) [fulvestrant, reference compound]",Reduction in ESR1m ctDNA,"[1]; fulvestrant arm, compared with camizestrant",the extent of the reduction is lower than that observed with camizestrant
same,PFS events [no.],"[2]; fulvestrant 500 mg (n = 35), subgroup with mutation to the estrogen receptor (ESR1m)",31
same,PFS events [n],"[2]; fulvestrant 500 mg (n = 37), subgroup with prior CDK4/6 inhibitor therapy",33
same,PFS events [no.],"[2]; fulvestrant 500 mg (n = 43), subgroup with metastases to the liver and/or lungs",39
same,Median PFS,[2]; [9],3.7 months
same,Proportion of patients without progression at 12 m,[2]; [9],23.8%
same,Median PFS,[2]; [10],2.2 months
same,PFS events (%),[2]; [10],(88.6) %
same,Median PFS,[2]; [11],2.0 months
same,PFS events (%),[2]; [11],(90.7) %
same,Median PFS,[2]; [12],2.1 months
same,PFS events (%),[2]; [12],(89.2) %
